From PubChem BioAssay (NCI)
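Each compound was tested at five concentrations against cells in 96-well plates for 48 hours. Here, GI50 denotes the concentration required for 50% inhibition of growth. TGI denotes the concentration required for complete inhibition of growth.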

Columns and labels:
Assay in all cases: NCI-60 cell line screen, 48 h; in the data active = GI50 below about 0.43 µM; inactive = the rest
BT-549 breast = tested on: BT-549 breast
M14 melanoma = tested on: M14 melanoma
ACHN renal = tested on: ACHN renal
NCI/ADR-RES ovarian = tested on: NCI/ADR-RES ovarian
SNB-75 CNS = tested on: SNB-75 CNS
NCI-H460 lung = tested on: NCI-H460 lung
NCI-H522 lung = tested on: NCI-H522 lung
IGROV1 ovarian = tested on: IGROV1 ovarian
A498 renal = tested on: A498 renal
MCF7 breast = tested on: MCF7 breast
MDA-MB-435 = tested on: MDA-MB-435
CCRF-CEM leukemia = tested on: CCRF-CEM leukemia
CAKI-1 renal = tested on: CAKI-1 renal
T-47D breast = tested on: T-47D breast
NCI-H23 lung = tested on: NCI-H23 lung
OVCAR-3 ovarian = tested on: OVCAR-3 ovarian
COLO 205 colon = tested on: COLO 205 colon
DU-145 prostate = tested on: DU-145 prostate
SF-539 CNS = tested on: SF-539 CNS
RXF 393 renal = tested on: RXF 393 renal
MOLT-4 leukemia = tested on: MOLT-4 leukemia
SW-620 colon = tested on: SW-620 colon
SR leukemia = tested on: SR leukemia
NCI-H226 lung = tested on: NCI-H226 lung
SK-MEL-2 melanoma = tested on: SK-MEL-2 melanoma
OVCAR-4 ovarian = tested on: OVCAR-4 ovarian
U251 CNS = tested on: U251 CNS
HT29 colon = tested on: HT29 colon
UO-31 renal = tested on: UO-31 renal
UACC-257 melanoma = tested on: UACC-257 melanoma
OVCAR-5 ovarian = tested on: OVCAR-5 ovarian
UACC-62 melanoma = tested on: UACC-62 melanoma
786-0 renal = tested on: 786-0 renal
SK-OV-3 ovarian = tested on: SK-OV-3 ovarian
SN12C renal = tested on: SN12C renal
HS 578T breast = tested on: HS 578T breast
HCT-15 colon = tested on: HCT-15 colon
HCC-2998 colon = tested on: HCC-2998 colon
SNB-19 CNS = tested on: SNB-19 CNS
PC-3 prostate = tested on: PC-3 prostate
K-562 leukemia = tested on: K-562 leukemia
HOP-62 NSCLC = tested on: HOP-62 NSCLC
OVCAR-8 ovarian = tested on: OVCAR-8 ovarian
RPMI-8226 leukemia = tested on: RPMI-8226 leukemia
LOX IMVI melanoma = tested on: LOX IMVI melanoma
MALME-3M melanoma = tested on: MALME-3M melanoma
SK-MEL-5 melanoma = tested on: SK-MEL-5 melanoma
A549 NSCLC = tested on: A549 NSCLC
SK-MEL-28 melanoma = tested on: SK-MEL-28 melanoma
MDA-MB-231 breast = tested on: MDA-MB-231 breast
SF-268 CNS = tested on: SF-268 CNS
HCT-116 colon = tested on: HCT-116 colon
SF-295 CNS = tested on: SF-295 CNS

O=C(Nc1cccc(-n2cc(-c3ccncc3)c(-c3cc(O)cc(Cl)c3)n2)c1)c1cc(C(F)(F)F)cc(C(F)(F)F)c1
13.7 µM: TGI (LOX IMVI melanoma)
12.7 µM: TGI (RPMI-8226 leukemia)
51.2 µM: TGI (UACC-257 melanoma)
46.6 µM: TGI (BT-549 breast)
24.4 µM: TGI (U251 CNS)
3.32 µM: TGI (MDA-MB-231 breast)
14.7 µM: TGI (HCT-15 colon)
51.7 µM: TGI (SF-539 CNS)
46.5 µM: TGI (NCI-H23 lung)
21.1 µM: TGI (786-0 renal)
25.7 µM: TGI (OVCAR-3 ovarian)
8.37 µM: TGI (NCI-H522 lung)
94.4 µM: TGI (MALME-3M melanoma)
4.35 µM: TGI (RXF 393 renal)
8.67 µM: TGI (SK-MEL-5 melanoma)
> 100 µM: TGI (M14 melanoma) | TGI (ACHN renal) | TGI (NCI/ADR-RES ovarian) | TGI (SNB-75 CNS) | TGI (NCI-H460 lung) | TGI (IGROV1 ovarian) | TGI (MCF7 breast) | TGI (MDA-MB-435) | TGI (CCRF-CEM leukemia) | TGI (CAKI-1 renal) | TGI (DU-145 prostate) | TGI (MOLT-4 leukemia) | TGI (SW-620 colon) | TGI (NCI-H226 lung) | TGI (OVCAR-4 ovarian) | TGI (UO-31 renal) | TGI (SK-OV-3 ovarian) | TGI (SN12C renal) | TGI (HS 578T breast) | TGI (SNB-19 CNS) | TGI (K-562 leukemia) | TGI (HOP-62 NSCLC) | TGI (OVCAR-8 ovarian) | TGI (A549 NSCLC) | TGI (SF-268 CNS) | TGI (HCT-116 colon)
5.74 µM: TGI (COLO 205 colon)
22.5 µM: TGI (PC-3 prostate)
11.6 µM: TGI (HCC-2998 colon)
94.5 µM: TGI (T-47D breast)
37.7 µM: TGI (HT29 colon)
38.4 µM: TGI (OVCAR-5 ovarian)
9.51 µM: TGI (SK-MEL-2 melanoma)
90.8 µM: TGI (A498 renal)
85.3 µM: TGI (SK-MEL-28 melanoma)
5.01 µM: TGI (SR leukemia)
7.15 µM: TGI (SF-295 CNS)
inactive: GI50 (BT-549 breast) 4.65 µM | GI50 (M14 melanoma) 3.01 µM | GI50 (ACHN renal) 4.98 µM | GI50 (NCI/ADR-RES ovarian) 4.55 µM | GI50 (SNB-75 CNS) 2.8 µM | GI50 (NCI-H460 lung) 3.04 µM | GI50 (NCI-H522 lung) 1.6 µM | GI50 (IGROV1 ovarian) 7.96 µM | GI50 (A498 renal) 4.75 µM | GI50 (MCF7 breast) 2.86 µM | GI50 (MDA-MB-435) 3.16 µM | GI50 (CCRF-CEM leukemia) 2.68 µM | GI50 (CAKI-1 renal) 3.67 µM | GI50 (T-47D breast) 2.99 µM | GI50 (NCI-H23 lung) 4.16 µM | GI50 (OVCAR-3 ovarian) 3.28 µM | GI50 (COLO 205 colon) 2.32 µM | GI50 (DU-145 prostate) 5.19 µM | GI50 (SF-539 CNS) 5.01 µM | GI50 (RXF 393 renal) 1.69 µM | GI50 (MOLT-4 leukemia) 2.38 µM | GI50 (SW-620 colon) 4.48 µM | GI50 (SR leukemia) 1.61 µM | GI50 (NCI-H226 lung) 16.1 µM | GI50 (SK-MEL-2 melanoma) 3.28 µM | GI50 (OVCAR-4 ovarian) 8.53 µM | GI50 (U251 CNS) 3.23 µM | GI50 (HT29 colon) 2.5 µM | GI50 (UO-31 renal) 2.5 µM | GI50 (UACC-257 melanoma) 4.23 µM | GI50 (OVCAR-5 ovarian) 8.23 µM | GI50 (UACC-62 melanoma) 3.79 µM | GI50 (786-0 renal) 3.12 µM | GI50 (SK-OV-3 ovarian) 10.8 µM | GI50 (SN12C renal) 4.77 µM | GI50 (HS 578T breast) 6.38 µM | GI50 (HCT-15 colon) 2.6 µM | GI50 (HCC-2998 colon) 3.12 µM | GI50 (SNB-19 CNS) 7.03 µM | GI50 (PC-3 prostate) 2.28 µM | GI50 (K-562 leukemia) 3.24 µM | GI50 (HOP-62 NSCLC) 9.82 µM | GI50 (OVCAR-8 ovarian) 3.58 µM | GI50 (RPMI-8226 leukemia) 2.5 µM | GI50 (LOX IMVI melanoma) 3.29 µM | GI50 (MALME-3M melanoma) 3.69 µM | GI50 (SK-MEL-5 melanoma) 2.61 µM | GI50 (A549 NSCLC) 2.62 µM | GI50 (SK-MEL-28 melanoma) 4.71 µM | GI50 (MDA-MB-231 breast) 1.42 µM | GI50 (SF-268 CNS) 6.38 µM | GI50 (HCT-116 colon) 3.23 µM | GI50 (SF-295 CNS) 2.37 µM
22.4 µM: TGI (UACC-62 melanoma)
